Data taken from US20150031892A1, “SPHINGOLIPID METABOLITE MIMETICS” (Zhejiang University, priority 2012, published 2015).
Like-named read-outs stand apart in the source and are kept apart here.

How the values were obtained:
Assay type in all cases: cell-based
SW620 = assay: MTT cytotoxicity assay, SW620 (colon cancer); details: Homo sapiens, SW-620
HepG2 = assay: MTT cytotoxicity assay, HepG2 (liver cancer); details: Homo sapiens
Protocol: (§1) Cell survival after exposure to the sphingolipid metabolite mimetics was examined by MTT cytotoxicity assay. HepG2, A431, HeLa, MCF-7 and SA cells (7000 cells/well) were seeded in each well of a 96-well plate for 24 h. New medium was added to give final concentrations of 0 to 200 μM of the sphingolipid metabolite mimetics. Then, 50 μl of 1 mg/ml 3-(4,5-dimethylthiazol-2-yl)-2,5-diphenyltetrazolium bromide (MTT, Sigma-Aldrich Chemical) was added to each well for 4 h incubation at 37° C. The purple formazan formed was then solubilized by DMSO and absorbance at 570 nm was read by a microplate reader (Molecular Devices, Sunnyvale, Calif.).

SW480 = assay: MTT cytotoxicity assay, SW480 (colon cancer); details: Homo sapiens
MCF-7 = assay: MTT cytotoxicity assay, MCF-7 (breast cancer); details: Homo sapiens, MCF7; Breast Cancer MCF-7, MTT
Protocol: as §1

SiHa = assay: MTT cytotoxicity assay, SiHa (ovarian cancer as headed); details: Homo sapiens, Cervical Cancer SiHa
SA = assay: MTT cytotoxicity assay, SA (pancreatic cancer as headed)
Protocol: as §1

A431 = assay: MTT cytotoxicity assay, A431 (squamous carcinoma); details: Homo sapiens, A-431
Protocol: as §1

[1] = system: multiple types of cancer cells; assay: MTT cytotoxicity, statements over several cancer cell lines; details: for direct anti-cancer cell activity: summary statement
Protocol: as §1

HELA cells = assay: Drug sensitivity MTT assay with TRAIL, HELA; design: scale not given here; details: drug alone (19-100 μM; TRAIL 100 ng/ml), 48 h
Protocol: (§2) Cell survival after exposure to the anti-tumor agents was examined by MTT cytotoxicity assay. Cells were seeded in each well of a 96-well plate for 24 h. After incubation with various concentrations of compounds, TRAIL, or both for 48 h, the medium was discarded. Then, 50 μl of 1 mg/ml 3-(4,5-dimethylthiazol-2-yl)-2,5-diphenyltetrazolium bromide (MTT, Sigma-Aldrich Chemical) was added to each well for 4 h incubation at 37° C. The purple formazan formed was then solubilized by DMSO and absorbance at 570 nm was read by a microplate reader (Molecular Devices, Sunnyvale, Calif.).

MCF-7 cells = assay: Drug sensitivity MTT assay with TRAIL, MCF-7; design: scale not given here; details: drug alone (19-100 μM; TRAIL 100 ng/ml), 48 h
Protocol: as §2

| Molecule | IC50 (SW620) [µM] | IC50 (HepG2) [µM] | IC50 (SW480) [µM] | IC50 (MCF-7) [µM] | IC50 (SiHa) [µM] | IC50 (SA) [µM] | IC50 (A431) [µM] | direct anti-cancer cell activity [1] | IC50 ([1]; all five cell lines tested, read-out: IC50 values) [µM] | IC50 ([1]; multiple types of cancer cells, read-out: IC50) [µM] | NZJU alone mean value (sensitivity, growth inhibition) (HELA cells) | NZJU alone mean value (sensitivity, growth inhibition) (MCF-7 cells) |
| --- | --- | --- | --- | --- | --- | --- | --- | --- | --- | --- | --- | --- |
| CCCCCCCCCCCCCCCCCCNC(=O)[C@@H](NC(=O)c1ccccc1)[C@@H](C)O [NZJU18, N-((2S,3R)-3-hydroxy-1-oxo-1-(octadecylamino)butan-2-yl)-benzamide] | ≥ 200 | > 400 | 36.47 ± 0.23 | 31.7 ± 6.55 | 38.2 ± 2.52 | > 400 | 113 ± 7.87 | – | – | – | – | – |
| CCCCCCCCCCCCCC(=O)N[C@H](C(=O)Nc1ccccc1)[C@@H](C)O [NZJU19, N-((2S,3R)-3-Hydroxy-1-oxo-1-(benzamino)butan-2-yl)-tetradecyl acid amide] | ≥ 200 | > 400 | > 200 | > 400 | > 200 | > 200 | > 200 | – | – | – | – | – |
| CCCCCCCCCCCCNC(=O)[C@@H](NC(=O)/C=C/c1ccccc1)[C@@H](C)O [NZJU24, (E)-N-((2S,3R)-3-hydroxy-1-oxo-1-(dodecylamino)butan-2-yl)-3-phenyl acrylic acid amide] | ≥ 200 | > 200 | > 200 | > 200 | > 200 | 154.8 ± 1.16 | > 200 | – | – | – | – | – |
| CCCCCCCCCCCCCCNC(=O)[C@@H](NC(=O)/C=C/c1ccccc1)[C@@H](C)O [NZJU25, (E)-N-((2S,3R)-3-hydroxy-1-oxo-1-(tetradecylamino)butan-2-yl)-3-phenyl acrylic acid amide] | ≥ 200 | 150 ± 4.37 | 86.9 | 64.6 ± 4.54 | 35.8 ± 0.68 | 80.9 ± 1.9 | 64.9 ± 4.87 | – | – | – | – | – |
| CCCCCCCCCCCCCCCCCCNC(=O)[C@@H](NC(=O)/C=C/c1ccccc1)[C@@H](C)O [NZJU26, (E)-N-((2S,3R)-3-hydroxy-1-oxo-1-(octadecylamino)butan-2-yl)-3-phenyl acrylic acid amide] | ≥ 200 | 128 ± 9.04 | 123 | 39.2 ± 2.21 | 35.9 ± 2.64 | 47.1 ± 0.54 | 177 ± 7.17 | direct anti-cancer cell activity | – | – | – | – |
| CCCCCCCCCCCCCCCCCCNC(=O)[C@@H](NC(=O)Cc1c[nH]c2ccccc12)[C@@H](C)O [NZJU29, N-((2S,3R)-3-hydroxy-1-oxo-1-(octadecylamino)butan-2-yl)-indole-3-acetic acid amide] | 103 ± 7.48 | 57.6 ± 2.69 | 60 | 37.3 ± 1.82 | 65.8 ± 6.45 | 54.9 ± 3.9 | 31.8 ± 1.93 | direct anti-cancer cell activity | – | – | – | – |
| CCCCCCCCCCCCCCNC(=O)[C@@H](NC(=O)c1nccc2ccccc12)[C@@H](C)O [NZJU31, N-((2S,3R)-3-hydroxy-1-oxo-1-(tetradecylamino)butan-2-yl)-isoquinoline-1-carboxamide] | 30.4 ± 2.09 | 28.6 ± 3.77 | 23.6 | 22.8 ± 3.94 | 21.6 ± 2.26 | 24.4 ± 3.6 | 23 ± 3.72 | – | < 30 | – | – | – |
| CCCCCCCCCCCCCCCCCCNC(=O)[C@@H](NC(=O)c1nccc2ccccc12)[C@@H](C)O [NZJU32, N-((2S,3R)-3-hydroxy-1-oxo-1-(octadecylamino)butan-2-yl)-isoquinoline-1-carboxamide] | 136 ± 13.3 | 96.9 ± 6.77 | 30.7 | 30.8 ± 0.67 | 51.2 ± 3.46 | 49.1 ± 4.72 | 44.1 ± 2.02 | – | – | – | – | – |
| CCCCCCCCCCCCNC(=O)[C@@H](NC(=O)c1cccs1)[C@@H](C)O [NZJU33, N-((2S,3R)-3-hydroxy-1-oxo-1-(dodecylamino)butan-2-yl)-2-thiophene carboxamide] | 29.2 ± 0.57 | 30.1 ± 3.84 | 30.2 | 30.4 ± 2.8 | 23.9 ± 3.65 | 23.3 ± 3.33 | 16.6 ± 2.12 | direct anti-cancer cell activity | – | – | – | – |
| CCCCCCCCCCCCCCCCCCNC(=O)[C@@H](NC(=O)c1cccs1)[C@@H](C)O [NZJU35, N-((2S,3R)-3-hydroxy-1-oxo-1-(octadecylamino)butan-2-yl)-2-thiophene carboxamide] | ≥ 200 | 92 ± 7.76 | 89 | 25.7 ± 0.47 | 117 ± 3.9 | 53.5 ± 5.32 | 33.3 ± 3.32 | – | – | – | – | – |
| CCCCCCCCNC(=O)[C@@H](NC(=O)c1ccccc1)[C@@H](C)O [NZJU39, N-((2S,3R)-3-hydroxy-1-oxo-1-(octylamino)butan-2-yl)-benzamide] | ≥ 200 | 136 ± 5.92 | > 200 | 111 ± 4.66 | 112 ± 2.43 | 34.6 ± 4.17 | 61.3 ± 4.09 | direct anti-cancer cell activity | – | – | – | – |
| CCCCCCCCNC(=O)[C@@H](NC(=O)c1ccco1)[C@@H](C)O [NZJU40, N-((2S,3R)-3-hydroxy-1-oxo-1-(octylamino)butan-2-yl)-Furan-2-carboxamide] | ≥ 200 | 192 ± 11.1 | 194 | 91.8 ± 4.21 | 124 ± 8.78 | 64.65 ± 0.5 | 64.5 ± 0.78 | – | – | – | – | – |
| CCCCCCCCNC(=O)[C@@H](NC(=O)/C=C/c1ccccc1)[C@@H](C)O [NZJU42, (E)-N-((2S,3R)-3-hydroxy-1-oxo-1-(octylamino)butan-2-yl)-3-phenyl acrylic acid amide] | 61.35 ± 0.27 | 55.6 ± 0.64 | 62.7 | 35.06 ± 0.2 | 41.4 ± 5.96 | 25.6 ± 4.41 | 36 ± 3.36 | – | – | – | – | – |
| CCCCCCCCCCCCCCNC(=O)[C@@H](N)[C@@H](C)O [NZJU46, (2S,3R)-2-Amino-3-hydroxy-N-tetradecylbutanamide] | 18.7 ± 3.81 | – | – | 10.7 ± 0.98 | 11 ± 1.39 | 11 ± 1.39 | 14.6 ± 0.76 | direct anti-cancer cell activity | – | – | – | – |
| CCCCCCCCCCCCNC(=O)[C@@H](NC(=O)c1cc2ccccc2[nH]1)[C@@H](C)O [NZJU47, N-((2S,3R)-3-hydroxy-1-oxo-1-(dodecylamino)butan-2-yl)-indole-2-carboxamide] | – | 12 ± 2.38 | 10.2 ± 0.73 | – | 21.25 ± 0.01 | 12.3 ± 2.75 | 10.3 ± 2.78 | direct anti-cancer cell activity | – | < 20 | – | – |
| CCCCCCCCCCCCCCNC(=O)[C@@H](NS(=O)(=O)c1ccc(C)cc1)[C@@H](C)O [NZJU57, N-((2S,3R)-3-hydroxy-1-oxo-1-(tetradecylamino)butan-2-yl)-4-methylbenzsulfonamide] | – | 10.9 ± 0.54 | 11.8 ± 1.38 | – | 19.2 ± 2.14 | 10.9 ± 1.25 | 12 ± 1.87 | direct anti-cancer cell activity | – | – | – | – |
| CCCCCCCCCCCCCCNC(=O)[C@@H](NS(=O)(=O)c1cccs1)[C@@H](C)O [NZJU60, N-((2S,3R)-3-hydroxy-1-oxo-1-(tetradecylamino)butan-2-yl)-2-thiophene sulfonamide] | – | 21.6 ± 2.05 | 11.8 ± 1.25 | – | 20.4 ± 2.47 | 11.6 ± 2.2 | 22 ± 0.56 | direct anti-cancer cell activity | – | – | – | – |
| CCCCCCCCCCCCCCNC(=O)[C@@H](NS(=O)(=O)c1ccc2ccccc2c1)[C@@H](C)O [NZJU62, N-((2S,3R)-3-hydroxy-1-oxo-1-(tetradecylamino)butan-2-yl)-2-naphthylsulfonamide] | – | 11.4 ± 1.11 | 5.76 ± 1.02 | – | 11.1 ± 1.39 | 10.2 ± 0.3 | 19.6 ± 2.16 | direct anti-cancer cell activity | – | – | – | – |
| TRAIL: TNF-related apoptosis-inducing ligand, a death receptor ligand used as apoptosis-inducing agent (protein, UniProt P50591 1-281, looked up) Tumor necrosis factor ligand …: MAMMEVQGGPSLGQTCVLIVIFTVLLQSLCVAVTYVYFTNELKQMQDKYSKSGIACFLKEDDSYWDPNDEESMNSPCWQVKWQLRQLVRKMILRTSEETISTVQEKQQNISPLVRERGPQRVAAHITGTRGRSNTLSSPNSKNEKALGRKINSWESSRSGHSFLSNLHLRNGELVIHEKGFYYIYSQTYFRFQEEIKENTKNDKQMVQYIYKYTSYPDPILLMKSARNSCWSKDAEYGLYSIYQGGIFELKENDRIFVSVTNEHLIDMDHEASFFGAFLVG | – | – | – | – | – | – | – | – | – | – | 0.036 | 0.118 |
